Source: a melting point compilation (Tetko et al.)

First: Cn1c(C(=O)O)cc2cc(C(F)(F)F)ccc21
Second: CN1CC(=O)Nc2cc(C(=O)O)ccc21
The melting point of the first is lower: 199 to 201 °C for the first, 322 to 324 °C for the second.

First: O=C(O)c1c[nH]cc1-c1cc(Cl)c2c(c1)OCCO2
Second: O=C(O)c1cccc2[nH]cnc12
The melting point of the first is lower: 209 to 211 °C for the first, 326 to 330 °C for the second.

Compared with ON=Cc1c(Cl)nc2ccccn12, CN(CC(=O)O)c1nc2ccccc2s1 is lower in melting point: 209 to 211 °C for the first, 165 to 167 °C for the second.

First: O=C(O)c1cnn(-c2ncccc2Cl)c1C(F)(F)C(F)(F)F
Second: Cc1ccn2ncc(C(=O)O)c2n1
The melting point of the first is lower: 141 to 143 °C for the first, 256 to 258 °C for the second.

First: O=Cc1c[nH]nc1-c1cccc(Cl)c1
Second: CCc1cc(=O)[nH]c(-c2ccccc2)n1
The melting point of the first is lower: 139 to 141 °C for the first, 162 to 164 °C for the second.

First: CN1CCN(C2=c3ccccc3=Nc3ccc(Cl)cc3N2)CC1
Second: Oc1ccc(Sc2ccnc3cc(Cl)ccc23)cc1
The melting point of the first is lower: 184 to 186 °C for the first, 231 to 233 °C for the second.

First: O=C(O)c1cc2c(s1)CCCCC2
Second: O=C(O)CNC(=O)c1cc2c(s1)CCCC2
The melting point of the first is lower: 162 to 166 °C for the first, 177 to 179 °C for the second.

Compared with CNC(=O)c1ccc(OC)c(N)c1, CNC(=O)c1ccc(CN)cc1 is lower in melting point: 108 to 110 °C for the first, 90 to 92 °C for the second.

First: CC(=O)Nc1cccc2c1NCCC2
Second: CCNC(=O)Nc1cccc(N)c1
The melting point of the first is lower: 108 to 110 °C for the first, 122 to 124 °C for the second.

First: Nc1ccc(Oc2ccncc2)cc1
Second: COc1ccc(Oc2ccc(Cl)cc2N)cc1
The melting point of the first is higher: 160 to 162 °C for the first, 47 to 49 °C for the second.

First: Cc1ccc(CNC(=O)c2cccc(C#N)c2)cc1
Second: Cc1cccc(NC(S)=C(C#N)c2nc3ccccc3s2)c1C
The melting point of the first is higher: 134 to 136 °C for the first, 94 to 98 °C for the second.

First: COC(=O)c1cc(S(N)(=O)=O)c(F)cc1Br
Second: COC(=O)c1cc2c(nc1N)CCC2
The melting point of the first is higher: 164 to 166 °C for the first, 132 to 134 °C for the second.

First: CNC(c1ccc(Cl)cc1)c1ncccn1 (centres undefined)
Second: Nc1ccn(Cc2ccncc2)n1
The melting point of the first is lower: 67 to 69 °C for the first, 122 to 124 °C for the second.

Compared with Cc1nc2c(cnn2C(C)C)c(=O)[nH]1, Cc1cc(C)c(C(=O)O)c(Cl)n1 is lower in melting point: 174 to 176 °C for the first, 78 to 82 °C for the second.

First: CC(C)Oc1ccc(S(N)(=O)=O)cc1
Second: COc1ccc(NS(=O)(=O)c2ccc(C=CC(=O)O)cc2)cc1
The melting point of the first is lower: 121 to 123 °C for the first, 238 to 240 °C for the second.

Compared with O=S1(=O)CCNCC12CCCCC2, CC(C)(C)OC(=O)N1CC2(CNC(=O)C2)C1 is higher in melting point: 99 to 101 °C for the first, 163 to 165 °C for the second.

Compared with O=C(CCl)Cc1ccc(F)cc1, O=C(O)CCCNC(=O)c1ccc(F)cc1 is lower in melting point: 127 to 129 °C for the first, 93 to 95 °C for the second.

First: Nc1ccc2nc(-n3ccnc3)sc2c1
Second: Nc1cc(F)c(-n2ccnc2)c(F)c1
The melting point of the first is higher: 202 to 204 °C for the first, 159 to 161 °C for the second.

First: CC1(c2cccnc2)NC(=O)NC1=O (centres undefined)
Second: CC1Nc2ccccc2NC1=O (centres undefined)
The melting point of the first is higher: 144 to 146 °C for the first, 130 to 132 °C for the second.

First: CC(C(=O)Nc1ccc(N)cc1)n1cncn1 (centres undefined)
Second: CCn1nnnc1-c1cccc(N)c1
The melting point of the first is higher: 202 to 204 °C for the first, 118 to 120 °C for the second.

First: O=C(O)c1noc2c1CCCC2
Second: COC(=O)CC1CCCCC1=NO (centres undefined)
The melting point of the first is higher: 124 to 126 °C for the first, 74 to 76 °C for the second.

First: Clc1cn[nH]c1
Second: NS(=O)(=O)c1ccc(Cl)nc1Cl
The melting point of the first is lower: 65 to 67 °C for the first, 189 to 191 °C for the second.

First: Cc1cc(C(=O)CCl)c(Cl)cc1F
Second: O=C(O)c1cc(-c2c(F)cccc2F)no1
The melting point of the first is lower: 36 to 38 °C for the first, 181 to 183 °C for the second.

CC(=O)NCc1ccc(S(N)(=O)=O)s1 and NC(=O)NCc1ccco1 cannot be ordered by melting point: 121 to 123 °C for the first, 120 to 122 °C for the second.

First: CSc1nc2cnccc2o1
Second: NS(=O)(=O)c1cnccn1
The melting point of the first is lower: 85 to 87 °C for the first, 166 to 168 °C for the second.

Compared with OCC1CNC(c2ccccc2)=NO1 (centres undefined), C#CCOc1ccccc1O is lower in melting point: 149 to 151 °C for the first, 48 to 50 °C for the second.

First: CC1CN(S(=O)(=O)c2ccc(C(=O)O)cc2)CC(C)O1 (centres undefined)
Second: CN1CCc2ccc(C(=O)O)cc21
The melting point of the first is higher: 268 to 270 °C for the first, 165 to 167 °C for the second.

First: O=c1[nH]cnc2cc(F)c(F)cc12
Second: COc1cc(C(N)=NO)ccc1O
The melting point of the first is higher: 264 to 266 °C for the first, 147 to 149 °C for the second.

First: CCCCC(Br)C(=O)Nc1cc(C)on1 (centres undefined)
Second: CCOC(=O)Cn1nc(C)c(C=O)c1C
The melting point of the first is higher: 84 to 86 °C for the first, 79 to 81 °C for the second.

First: NC(=O)NC1CC1
Second: NC(=O)CNCC(N)=O
The melting point of the first is lower: 114 to 116 °C for the first, 129 to 131 °C for the second.

First: O=[N+]([O-])c1ccc(-c2nnc(CCl)o2)cc1
Second: CCn1c(SCC(=O)N2c3ccccc3Sc3ccccc32)nnc1-c1ccco1
The melting point of the first is lower: 128 to 130 °C for the first, 152 to 154 °C for the second.

Compared with COC(=O)c1ccc(C=CC(=O)O)cc1, O=C(O)/C=C/c1nccs1 is lower in melting point: 236 to 238 °C for the first, 182 to 184 °C for the second.

First: CCS(=O)(=O)c1cccc(S(=O)(=O)Cl)c1
Second: O=C(NO)c1ccccc1Br
The melting point of the first is lower: 92 to 94 °C for the first, 182 to 184 °C for the second.

First: CC(C)(C)c1nnn[nH]1
Second: CC(C)(C)OC(=O)NC(CN)CN
The melting point of the first is higher: 203 to 205 °C for the first, 58 to 60 °C for the second.

Compared with FC(F)(F)CNC(=S)N1CCOCC1, Cc1sc2nc(CN3CCCC3)nc(Cl)c2c1C is lower in melting point: 103 to 105 °C for the first, 68 to 72 °C for the second.

First: O=C(O)C(=Cc1cccs1)n1nnnc1-c1ccccc1
Second: O=C(O)COC(c1ccccc1)c1ccccc1
The melting point of the first is higher: 204 to 206 °C for the first, 81 to 83 °C for the second.

First: NC(CSCCOc1ccccc1)C(=O)O (centres undefined)
Second: C=CCn1nnnc1S
The melting point of the first is higher: 214 to 216 °C for the first, 66 to 68 °C for the second.
